Experimental data published in paper PMC7182431, “CNGA3 acts as a cold sensor in hypothalamic neurons” (eLife, 2020).

Key:
Type in all cases: cell-based
sqCNGA3 (squirrel CNGA3) = target: T1, sqCNGA3 (squirrel CNGA3) (Ictidomys tridecemlineatus, UniProt A0A6H2E3H4); test: inside-out patch clamp, HEK293T, Hill fit
T1 construct: pMO vector, no tag stated; HEK293T (PIEZO1-deleted) cells, also Xenopus oocytes; homomer
T1 sequence (A0A6H2E3H4 1-672): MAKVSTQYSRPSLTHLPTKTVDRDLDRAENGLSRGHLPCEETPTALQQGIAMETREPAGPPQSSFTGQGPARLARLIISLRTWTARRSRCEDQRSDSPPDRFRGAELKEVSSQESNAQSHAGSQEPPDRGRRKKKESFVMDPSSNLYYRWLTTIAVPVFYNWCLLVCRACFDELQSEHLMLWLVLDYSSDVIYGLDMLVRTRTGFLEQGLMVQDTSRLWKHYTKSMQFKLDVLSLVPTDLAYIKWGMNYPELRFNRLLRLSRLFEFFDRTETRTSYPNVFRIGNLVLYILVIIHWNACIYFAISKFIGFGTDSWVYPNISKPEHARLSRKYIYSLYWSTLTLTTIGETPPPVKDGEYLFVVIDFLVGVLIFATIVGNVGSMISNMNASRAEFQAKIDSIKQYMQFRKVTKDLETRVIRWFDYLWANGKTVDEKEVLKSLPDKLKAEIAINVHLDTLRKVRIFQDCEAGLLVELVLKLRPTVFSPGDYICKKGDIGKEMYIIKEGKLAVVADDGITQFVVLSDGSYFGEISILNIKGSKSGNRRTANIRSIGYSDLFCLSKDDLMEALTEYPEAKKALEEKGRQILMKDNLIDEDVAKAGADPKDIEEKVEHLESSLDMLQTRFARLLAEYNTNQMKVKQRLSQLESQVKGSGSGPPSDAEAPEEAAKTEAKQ

mCNGA3 (mouse CNGA3) = target: T2, mCNGA3 (mouse CNGA3) (Mus musculus, UniProt A0A6H2E2T0); test: inside-out patch clamp, HEK293T, Hill fit
T2 construct: HEK293T (PIEZO1-deleted) cells, also Xenopus oocytes; homomer
T2 sequence (A0A6H2E2T0 1-630): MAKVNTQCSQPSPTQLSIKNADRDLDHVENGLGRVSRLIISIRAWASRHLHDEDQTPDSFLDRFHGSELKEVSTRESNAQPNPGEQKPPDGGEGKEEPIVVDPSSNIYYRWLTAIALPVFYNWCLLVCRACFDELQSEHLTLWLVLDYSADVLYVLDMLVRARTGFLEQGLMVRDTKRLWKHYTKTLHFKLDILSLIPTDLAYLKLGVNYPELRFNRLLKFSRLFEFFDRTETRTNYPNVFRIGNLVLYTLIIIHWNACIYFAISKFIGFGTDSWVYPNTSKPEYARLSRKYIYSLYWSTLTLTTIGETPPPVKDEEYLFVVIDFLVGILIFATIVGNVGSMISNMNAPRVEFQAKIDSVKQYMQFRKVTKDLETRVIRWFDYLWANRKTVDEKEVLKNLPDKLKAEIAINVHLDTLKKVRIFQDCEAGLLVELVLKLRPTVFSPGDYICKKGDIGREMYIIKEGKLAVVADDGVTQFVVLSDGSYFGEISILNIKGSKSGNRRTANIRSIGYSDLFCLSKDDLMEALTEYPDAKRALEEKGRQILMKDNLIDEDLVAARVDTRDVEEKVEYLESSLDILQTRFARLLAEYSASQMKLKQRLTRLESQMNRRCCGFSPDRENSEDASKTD

[1] = target: T3, CNGA3-CNGB1 heteromers (mCNGA3 with mCNGB1) (Mus musculus, UniProt A0A6H2E2T0+E1AZ71); test: voltage clamp, Xenopus oocytes, inhibition of cold-activated current; conditions: 100 µM extracellular drug, 1 µM intracellular cGMP, -80 mV, cooling; inhibitor; mixed with CNGA3 homomers
T3 construct: full-length subunits co-expressed in Xenopus oocytes from pMO vector; mixture with CNGA3 homomers likely
T3 sequence (E1AZ71 whole entry, one chain of several): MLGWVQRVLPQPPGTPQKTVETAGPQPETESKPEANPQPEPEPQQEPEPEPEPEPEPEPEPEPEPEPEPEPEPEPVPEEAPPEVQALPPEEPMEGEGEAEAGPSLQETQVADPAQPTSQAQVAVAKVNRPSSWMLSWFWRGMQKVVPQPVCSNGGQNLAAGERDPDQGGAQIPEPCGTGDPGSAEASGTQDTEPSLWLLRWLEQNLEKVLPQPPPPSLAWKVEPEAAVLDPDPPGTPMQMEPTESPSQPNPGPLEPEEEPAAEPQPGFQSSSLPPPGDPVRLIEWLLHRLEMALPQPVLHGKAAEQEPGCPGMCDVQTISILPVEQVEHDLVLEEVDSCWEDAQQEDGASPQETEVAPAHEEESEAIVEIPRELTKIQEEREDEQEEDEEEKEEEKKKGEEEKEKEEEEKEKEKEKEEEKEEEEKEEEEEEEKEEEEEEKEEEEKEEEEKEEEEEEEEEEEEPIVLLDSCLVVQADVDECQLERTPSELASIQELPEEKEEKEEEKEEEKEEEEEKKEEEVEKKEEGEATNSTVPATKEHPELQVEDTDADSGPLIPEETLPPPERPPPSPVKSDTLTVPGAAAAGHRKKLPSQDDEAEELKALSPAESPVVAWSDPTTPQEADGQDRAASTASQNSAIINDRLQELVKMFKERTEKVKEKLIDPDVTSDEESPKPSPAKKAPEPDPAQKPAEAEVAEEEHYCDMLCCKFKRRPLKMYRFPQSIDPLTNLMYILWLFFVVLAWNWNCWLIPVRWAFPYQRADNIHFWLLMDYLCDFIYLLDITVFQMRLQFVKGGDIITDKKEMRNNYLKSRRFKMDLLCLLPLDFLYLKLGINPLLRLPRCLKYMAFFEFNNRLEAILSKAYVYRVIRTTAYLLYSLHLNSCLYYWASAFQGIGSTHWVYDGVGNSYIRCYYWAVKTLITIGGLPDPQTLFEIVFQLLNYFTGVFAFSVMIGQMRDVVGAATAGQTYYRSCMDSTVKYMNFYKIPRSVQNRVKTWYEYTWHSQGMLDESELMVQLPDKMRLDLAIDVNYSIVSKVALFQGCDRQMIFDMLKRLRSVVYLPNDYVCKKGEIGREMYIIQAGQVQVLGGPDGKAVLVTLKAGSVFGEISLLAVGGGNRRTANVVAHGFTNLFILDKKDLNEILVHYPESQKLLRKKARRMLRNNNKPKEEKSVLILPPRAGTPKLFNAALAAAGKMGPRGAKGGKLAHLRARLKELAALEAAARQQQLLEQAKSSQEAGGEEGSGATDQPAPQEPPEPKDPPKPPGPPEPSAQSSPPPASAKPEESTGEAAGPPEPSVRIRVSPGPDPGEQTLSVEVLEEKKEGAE

SMILES: Nc1nc2c(ncn2[C@@H]2O[C@@H]3COP(=O)(O)O[C@H]3[C@H]2O)c(=O)[nH]1 [cGMP]
- EC50 (sqCNGA3 (squirrel CNGA3)): 26.4 ± 1.12 µM
- EC50 (mCNGA3 (mouse CNGA3)): 21.8 ± 5.48 µM

SMILES: COc1ccc([C@H]2Sc3ccccc3N(CCN(C)C)C(=O)[C@H]2OC(C)=O)cc1 [l-cis-diltiazem]
- inhibition [1]: CNGA3-CNGB1 heteromers can form a cold-activated l-cis-diltiazem-sensitive ion channel
